Test results reported in patent publication US8133849B2, “Herbicidal compounds” (Syngenta Limited, priority 2007, dated 2012).

Legend:
Test in all cases: Example B2 herbicidal action, post-emergence, pots in glasshouse, damage score 0-10
Assay type in all cases: in vivo
Conditions in all cases: application post-emergence, rate 1000 g/ha, evaluated after 13 days
Amaranthus retroflexus = test system: Amaranthus retroflexus
Method in brief: (§1)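 Evaluation took place 13 days post-spray. Treatment used an acetone/water (50:50), 0.5% Tween 20 formulation applied to 8-day-old potted plants, held at 24/16 °C with 14 h light, 65% humidity and twice-daily watering.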

Setaria faberi = test system: Setaria faberi
Method in brief: as §1

Solanum nigrum = test system: Solanum nigrum
Method in brief: as §1

Ipomea hederaceae = test system: Ipomea hederaceae
Method in brief: as §1

Echinochloa crus-galli = test system: Echinochloa crus-galli
Method in brief: as §1

Compound | AMARE damage score (10=total damage to plant; 0=no damage to plant) (Amaranthus retroflexus) | SETFA damage score (10=total damage to plant; 0=no damage to plant) (Setaria faberi) | SOLNI damage score (10=total damage to plant; 0=no damage to plant) (Solanum nigrum) | IPOHE damage score (10=total damage to plant; 0=no damage to plant) (Ipomea hederaceae) | ECHCG damage score (10=total damage to plant; 0=no damage to plant) (Echinochloa crus-galli)
CC(C)C(=O)OC1=C(c2ccccc2C(F)(F)F)S(=O)(=O)N(CC(F)F)c2nccnc21 [Compound C61] | 10 | 10 | 10 | 10 | 9
CSC(=O)OC1=C(c2ccc(Br)cc2C(F)(F)F)S(=O)(=O)N(CC(F)F)c2nccnc21 [Compound C133] | 10 | 7 | 10 | 8 | 8
CC(C)C(=O)OC1=C(c2cc(C(F)(F)F)ccc2Cl)S(=O)(=O)N(CC(Cl)Cl)c2nccnc21 [Compound C115] | 8 | 5 | 9 | 6 | 1
CC(C)C(=O)OC1=C(c2c(C(F)(F)F)ccc(Cl)c2Cl)S(=O)(=O)N(CC(F)F)c2nccnc21 [Compound C134] | 8 | 4 | 8 | 3 | 5
CC(C)C(=O)OC1=C(c2ccccc2SC(F)(F)F)S(=O)(=O)N(CC(F)F)c2nccnc21 [Compound C18] | 9 | 0 | 3 | 6 | 1
CC(C)(C)C(=O)OC1=C(c2cc(C(F)(F)F)ccc2Br)S(=O)(=O)N(CC(F)F)c2nccnc21 [Compound C80] | 10 | 0 | 10 | 10 | 6
COCN1c2nccnc2C(OC(=O)C(C)(C)C)=C(c2ccccc2SC(F)(F)F)S1(=O)=O [Compound C23] | 5 | 3 | 6 | 4 | 4
CCSC(=O)OC1=C(c2cc(Cl)ccc2C(F)(F)F)S(=O)(=O)N(CC)c2nccnc21 [Compound C109] | 5 | 2 | 8 | 9 | 5
CCSC(=O)OC1=C(c2c(Cl)ccc(Cl)c2Cl)S(=O)(=O)N(C)c2nccnc21 [Compound C94] | 6 | 2 | 9 | 9 | 6
CCN1c2nccnc2C(OC(=O)C(C)C)=C(c2c(Cl)cccc2C(F)(F)F)S1(=O)=O [Compound C30] | 8 | 5 | 10 | 9 | 6
O=S1(=O)C(c2c(Cl)cccc2C(F)(F)F)=C(O)c2c(ncc[n+]2[O-])N1CC(F)F [Compound E2] | 8 | 8 | 9 | 8 | 6
C=C(C)CN1c2nccnc2C(OC(=O)C(C)(C)C)=C(c2cccc(Cl)c2Cl)S1(=O)=O [Compound C140] | 0 | 0 | 2 | 2 | 0
CCN1c2nccnc2C(OC(=O)C(C)C)=C(c2cc(C(F)(F)F)ccc2Br)S1(=O)=O [Compound C70] | 7 | 1 | 8 | 10 | 7
CCN1c2nccnc2C(OC(=O)C(C)(C)C)=C(c2ccccc2C(F)(F)F)S1(=O)=O [Compound C64] | 4 | 3 | 5 | 6 | 5
CC(C)(C)C(=O)OC1=C(c2cc(C(F)(F)F)ccc2C(F)(F)F)S(=O)(=O)N(CC(F)F)c2nccnc21 [Compound C44] | 10 | 6 | 10 | 10 | 9
O=S1(=O)C(c2cc(F)c(Cl)cc2Cl)=C(O)c2nccnc2N1CC(F)F [Compound D25] | 10 | 4 | 10 | 9 | 3
CCc1cc(C)cc(CC)c1C1=C(OC(=O)C(C)C)c2nccnc2N(CC(F)F)S1(=O)=O [Compound C48] | 3 | 0 | 5 | 6 | 0
CCN1c2nccnc2C(O)=C(c2ccccc2SC(F)(F)F)S1(=O)=O [Compound D7] | 9 | 0 | 5 | 3 | 0
CCSC(=O)OC1=C(c2c(F)ccc(Br)c2Cl)S(=O)(=O)N(CC(F)F)c2nccnc21 [Compound C107] | 5 | 3 | 7 | 6 | 5
CCN1c2nccnc2C(OC(=O)C(C)(C)C)=C(c2cc(C(F)(F)F)ccc2Cl)S1(=O)=O [Compound C33] | 1 | 0 | 6 | 5 | 0
CCN1c2nccnc2C(OC(=O)C(C)(C)C)=C(c2cc(C(F)(F)F)ccc2C(F)(F)F)S1(=O)=O [Compound C46] | 4 | 0 | 6 | 5 | 4
O=S1(=O)C(c2ccccc2C(F)(F)F)=C(O)c2nccnc2N1CC(F)F [Compound D31] | 10 | 9 | 10 | 10 | 9
